Results as given in US7135466B2 (Kirin Beer Kabushiki Kaisha, priority 1999, dated 2006).
Like-named read-outs stand apart in the source and are kept apart here.

Tests used:
c-kit = target: T1, c-kit (Homo sapiens, UniProt P10721); assay: Inhibitory activity against c-kit autophosphorylation (MO7e cells, h-SCF); type: cell-based; details: for IC50: MO7e cells, read-out: c-kit IC50; for inhibition at 1 µM: Mo7e, at 1000 nM
T1 construct: MO7e (human megakaryocytic leukemia cell line) which had been arrested for 20 hr; endogenous in cells; host or cells: MO7e human megakaryocytic leukemia cell line
T1 sequence (P10721 26-976): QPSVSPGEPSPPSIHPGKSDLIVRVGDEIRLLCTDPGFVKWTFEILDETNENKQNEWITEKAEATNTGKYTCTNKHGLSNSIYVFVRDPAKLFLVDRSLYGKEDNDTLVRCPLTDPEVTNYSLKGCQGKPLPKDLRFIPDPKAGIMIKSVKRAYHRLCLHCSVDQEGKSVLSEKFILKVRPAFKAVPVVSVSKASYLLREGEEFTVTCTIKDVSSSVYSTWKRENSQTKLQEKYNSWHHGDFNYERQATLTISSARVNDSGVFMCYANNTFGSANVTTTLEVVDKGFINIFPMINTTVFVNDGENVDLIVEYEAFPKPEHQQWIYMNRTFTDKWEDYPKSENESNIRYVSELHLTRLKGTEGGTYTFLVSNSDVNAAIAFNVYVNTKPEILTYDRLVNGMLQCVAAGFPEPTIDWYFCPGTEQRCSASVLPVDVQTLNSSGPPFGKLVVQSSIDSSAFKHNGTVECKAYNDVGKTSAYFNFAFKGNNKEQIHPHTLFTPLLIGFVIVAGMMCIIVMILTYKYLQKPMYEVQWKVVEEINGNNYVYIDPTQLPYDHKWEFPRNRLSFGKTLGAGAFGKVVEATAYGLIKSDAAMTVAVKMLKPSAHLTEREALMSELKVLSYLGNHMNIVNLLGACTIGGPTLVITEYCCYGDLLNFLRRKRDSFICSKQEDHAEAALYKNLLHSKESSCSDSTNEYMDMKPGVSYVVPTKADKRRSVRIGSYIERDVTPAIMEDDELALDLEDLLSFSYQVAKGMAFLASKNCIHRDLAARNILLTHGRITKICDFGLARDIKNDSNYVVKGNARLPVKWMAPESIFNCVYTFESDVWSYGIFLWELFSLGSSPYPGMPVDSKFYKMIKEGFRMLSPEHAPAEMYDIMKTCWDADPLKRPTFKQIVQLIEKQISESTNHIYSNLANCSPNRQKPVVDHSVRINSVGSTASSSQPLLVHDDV
How it was run: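 MO7e cells, arrested for 20 hr, were pretreated with test compound in DMSO for 1 hr and then stimulated with 50 ng/ml h-SCF for 5 min before lysis. Lysates were captured on immobilized anti-phosphotyrosine PY-20, probed with anti-c-kit antibody and HRP anti-rabbit IgG, and read colorimetrically at 450 nm.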

PDGF-Ra = target: T2, PDGF-Ra (Homo sapiens, UniProt P16234); assay: Inhibitory activity against PDGF-Ra phosphorylation by PDGF-AA stimulation using G292; type: cell-based; details: for IC50: > means inhibition at indicated concentration not more than 50%, < and << not less than 50%, read-out: PDGF (E) IC50; for inhibition at 0.1 µM: G292, at 100 nM, read-out: PDGF (E) inhibition (%) at 100 nM
T2 construct: host or cells: G-292 human osteosarcoma cells
T2 sequence (P16234 24-1089): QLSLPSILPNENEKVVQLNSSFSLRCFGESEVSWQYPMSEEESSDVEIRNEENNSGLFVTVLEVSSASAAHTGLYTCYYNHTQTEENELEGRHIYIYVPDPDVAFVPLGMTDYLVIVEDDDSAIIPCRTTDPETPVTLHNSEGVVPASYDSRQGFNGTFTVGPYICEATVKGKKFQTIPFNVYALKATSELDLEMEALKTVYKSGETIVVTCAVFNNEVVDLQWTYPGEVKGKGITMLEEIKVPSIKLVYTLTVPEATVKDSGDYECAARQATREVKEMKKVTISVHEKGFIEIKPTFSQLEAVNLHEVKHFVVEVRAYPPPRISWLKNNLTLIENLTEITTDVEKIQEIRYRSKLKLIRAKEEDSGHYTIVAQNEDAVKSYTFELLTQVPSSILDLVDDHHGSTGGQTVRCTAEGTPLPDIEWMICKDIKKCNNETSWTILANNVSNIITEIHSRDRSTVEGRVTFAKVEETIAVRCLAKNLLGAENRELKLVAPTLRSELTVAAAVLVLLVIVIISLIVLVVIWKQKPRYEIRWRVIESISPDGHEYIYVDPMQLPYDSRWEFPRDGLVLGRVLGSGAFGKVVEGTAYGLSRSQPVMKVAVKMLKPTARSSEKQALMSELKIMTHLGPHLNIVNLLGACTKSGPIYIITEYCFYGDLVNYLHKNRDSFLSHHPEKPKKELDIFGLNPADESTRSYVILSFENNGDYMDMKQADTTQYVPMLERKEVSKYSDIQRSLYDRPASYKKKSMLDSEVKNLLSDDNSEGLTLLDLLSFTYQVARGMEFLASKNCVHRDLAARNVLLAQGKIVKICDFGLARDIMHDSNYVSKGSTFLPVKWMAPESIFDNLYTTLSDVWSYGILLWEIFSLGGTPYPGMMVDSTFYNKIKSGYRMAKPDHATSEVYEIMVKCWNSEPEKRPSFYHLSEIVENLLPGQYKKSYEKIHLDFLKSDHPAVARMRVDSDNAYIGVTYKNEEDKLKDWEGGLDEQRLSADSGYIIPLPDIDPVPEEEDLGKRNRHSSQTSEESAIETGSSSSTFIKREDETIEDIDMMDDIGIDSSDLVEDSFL
How it was run: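 Cells seeded in low-serum medium are exposed to test compound for one hour, then PDGF-AA (50 ng/ml) triggers receptor phosphorylation for 5 min at 37 °C. Phospho-PDGF-Ra in solubilized cells is quantified by anti-phosphotyrosine capture ELISA at 450 nm.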

[1] = figure in parentheses in >100( )

Compound | IC50 (c-kit; h-SCF 50 ng/ml) [nM] | IC50 (PDGF-Ra; Pharmacological Test Example 1) [nM] | IC50 (PDGF-Ra) [nM] | further results
COc1cc2nccc(Oc3ccc(NC(=O)OCCN4CCOCC4)c(C)c3C)c2cc1OC [Example 308, 2-Morpholinoethyl N-{4-[(6,7-dimethoxy-4-quinolyl)oxy]-2,3-dimethylphenyl}carbamate] | 101 | 20 |  | 
COc1cc2nccc(Oc3ccc(NC(=O)OC4CCCC4)cc3)c2cc1OC [Example 363, Cyclopentyl N-{4-[(6,7-dimethoxy-4-quinolyl)oxy]phenyl}carbamate] | 72 | < 10 |  | 
COc1cc2ncnc(Oc3ccc(NC(=S)NC(=O)c4ccccc4C)c(N4CCOCC4)c3)c2cc1OC [Example 1151, N-{4-[(6,7-Dimethoxy-4-quinazolinyl)oxy]-2-morpholinophenyl}-N′-(2-methylbenzoyl)thiourea] |  |  | < 10 | IC50 (c-kit; h-SCF stimulation): 146 nM
COc1cc2nccc(Oc3ccc(NC(=O)OC(C)c4ccc(C)cc4)c(C)c3C)c2cc1OC (stereo not drawn) [Example 133, 1-(4-Methylphenyl)ethyl N-{4-[(6,7-dimethoxy-4-quinolyl)oxy]-2,3-dimethylphenyl}carbamate] | 206 | 26 |  | 
CCN(CCNC(=O)Nc1cc(C)c(Oc2ccnc3cc(OC)c(OC)cc23)cc1C)c1cccc(C)c1 [Example 662, N-{4-[(6,7-Dimethoxy-4-quinolyl)oxy]-2,5-dimethylphenyl}-N′-[2-(ethyl-3-methylanilino)ethyl]urea] |  |  | 23 | IC50 (c-kit; 50 ng/ml h-SCF): 296 nM
COc1cc2ncnc(Oc3ccc(NC(=O)OC(C)c4ccc(F)cc4)cc3)c2cc1OC (stereo not drawn) [Example 105, 1-(4-Fluorophenyl)ethyl N-{4-[(6,7-dimethoxy-4-quinazolinyl)oxy]phenyl}carbamate] | 252 | < 10 |  | 
COc1cc2nccc(Oc3ccc(NCCOc4c(F)cccc4F)cc3C)c2cc1OC [Example 883, N-[2-(2,6-Difluorophenoxy)ethyl]-N-{4-[(6,7-dimethoxy-4-quinolyl)oxy]-3-methylphenyl}amine] |  |  | > 30 | IC50 (c-kit; h-SCF stimulation): 521 nM; PDGF (E) inhibition (%), figure in parentheses in >30( ) (PDGF-Ra; figure in parentheses in >30( ), concentration not defined in key (presumably 30 nM)): >30(30) %
COc1cc2ncnc(Oc3ccc(NC(=S)NC(=O)c4ccccn4)cc3)c2cc1OC [Example 1156, N-{4-[(6,7-Dimethoxy-4-quinazolinyl)oxy]phenyl}-N′-(2-pyridylcarbonyl)thiourea] |  |  | > 100 | inhibition at 1 µM (c-kit; figure in parentheses in −( )): 28%; inhibition at 0.1 µM (PDGF-Ra; [1]): 35%
COc1cc2ncnc(Oc3ccc(NC(=O)NC4CCN(Cc5ccc(C(C)(C)C)cc5)C4)cc3)c2cc1OC (stereo not drawn) [Example 583, N-{1-[4-(Tert-butyl)benzyl]tetrahydro-1H-3-pyrrolyl}-N′-{4-[(6,7-dimethoxy-4-quinazolinyl)oxy]phenyl}urea] |  |  | > 100 | inhibition at 1 µM (c-kit; figure within parentheses in −( ) or >1000( )): 18%; inhibition at 0.1 µM (PDGF-Ra; figure within parentheses in >100( )): 17%
COc1cc2ncnc(Oc3ccc(NC(=O)OC(C)c4cc(F)c(F)cc4F)c(Cl)c3)c2cc1OC (stereo not drawn) [Example 96, 1-(2,4,5-Trifluorophenyl)ethyl N-{2-chloro-4-[(6,7-dimethoxy-4-quinazolinyl)oxy]phenyl}carbamate] |  | 38 |  | inhibition at 1 µM (c-kit; figure in parentheses in −( )): 13%
COc1cc2ncnc(Oc3ccc(NC(=O)OCC4CCCC4)c(Cl)c3)c2cc1OC [Example 398, Cyclopentylmethyl N-{2-chloro-4-[(6,7-dimethoxy-4-quinazolinyl)oxy]phenyl}carbamate] | 462 | 33 |  | 
CCCC1CCC(C(=O)NC(=S)Nc2ccc(Oc3ncnc4cc(OC)c(OC)cc34)cc2)CC1 (stereo not drawn) [Example 1197, N-{4-[(6,7-Dimethoxy-4-quinazolinyl)oxy]phenyl}-N′-[(4-propylcyclohexyl)carbonyl]thiourea] |  |  | 25 | IC50 (c-kit; h-SCF stimulation): 219 nM
COc1cc2nccc(Oc3ccc(NC(=O)OCCCSc4ccccn4)c(C)c3C)c2cc1OC [Example 173, 3-(2-Pyridylsulfanyl)propyl N-{4-[(6,7-dimethoxy-4-quinolyl)oxy]-2,3-dimethylphenyl}-carbamate] | 37 | < 10 |  | 
COc1cc2ncnc(Oc3ccc(NC(=O)OC4CCCCC4)c(C)c3C)c2cc1OC [Example 391, Cyclohexyl N-{4-[(6,7-dimethoxy-4-quinazolinyl)oxy]-2,3-dimethylphenyl}carbamate] | 129 | 13 |  | 
COc1cc2nccc(Oc3ccc(NC(=S)NCCN(C(C)C)C(C)C)c(C)c3C)c2cc1OC [Example 550, N-{4-[(6,7-Dimethoxy-4-quinolyl)oxy]-2,3-dimethylphenyl}-N′-(2-diisopropylaminoethyl)thiourea] |  |  | 77 | IC50 (c-kit; 50 ng/ml h-SCF): 536 nM
COc1cc2nccc(Oc3ccc(NC(=S)NC(=O)c4cccc(C)c4)cc3)c2cc1OC [Example 930, N-{4-[(6,7-Dimethoxy-4-quinolyl)oxy]phenyl}-N′-(3-methylbenzoyl)thiourea] |  |  | < 10 | IC50 (c-kit; h-SCF stimulation): 184 nM
COc1cc2nccc(Oc3cc(C)c(NC(=O)OCCN4CCOCC4)cc3C)c2cc1OC [Example 307, 2-Morpholinoethyl N-{4-[(6,7-dimethoxy-4-quinolyl)oxy]-2,5-dimethylphenyl}carbamate] | 165 | > 100 |  | inhibition at 0.1 µM (PDGF-Ra; [1]): 49%
COc1cc2nccc(Oc3ccc(NC(=O)OCCCOc4ccccc4Cl)c(C)c3C)c2cc1OC [Example 17, 3-(2-Chlorophenoxy)propyl N-{4-[(6,7-dimethoxy-4-quinolyl)oxy]-2,3-dimethylphenyl}carbamate] | 57 | < 10 |  | 
COc1cc2nccc(Oc3cc(C)c(NC(=O)OCCCOc4ccccc4Cl)cc3C)c2cc1OC [Example 18, 3-(2-Chlorophenoxy)propyl N-{4-[(6,7-dimethoxy-4-quinolyl)oxy]-2,5-dimethylphenyl}carbamate] | 93 | 22 |  | 
COc1cc2nccc(Oc3ccc(NC(=O)OCCCSc4cc(C)ccc4C)c(C)c3C)c2cc1OC [Example 170, 3-[(2,5-Dimethylphenyl)sulfanyl]propyl N-{4-[(6,7-dimethoxy-4-quinolyl)oxy]-2,3-dimethylphenyl}carbamate] | 34 | < 10 |  | 
COc1cc2nccc(Oc3ccc(NC(=O)OCc4cccc(C)c4)cc3)c2cc1OC [Example 251, 3-Methylbenzyl N-{4-[(6,7-dimethoxy-4-quinolyl)oxy]phenyl}carbamate] | 185 | 6 |  | 
CCCOC(=O)Nc1ccc(Oc2ccnc3cc(OC)c(OC)cc23)c(C)c1C [Example 215, Propyl N-{4-[(6,7-Dimethoxy-4-quinolin)oxy]-2,3-dimethylphenyl}carbamate] | < 30 | 8 |  | 
CCCC(CC)OC(=O)Nc1ccc(Oc2ncnc3cc(OC)c(OC)cc23)cc1 (stereo not drawn) [Example 337, 1-Ethylbutyl N-{4-[(6,7-dimethoxy-4-quinazolinyl)oxy]phenyl}carbamate] | 198 | < 10 |  | 
COc1cc2ncnc(Oc3ccc(N(C)C(=O)OC4CCCCCC4)cc3)c2cc1OC [Example 494, Cycloheptyl N-{4-[(6,7-dimethoxy-4-quinazolinyl)oxy]phenyl}-N-methylcarbamate] |  |  | 16 | IC50 (c-kit; 50 ng/ml h-SCF): 125 nM
COc1cc2ncnc(Oc3ccc(NC(=O)OCc4ccccc4Cl)c(Cl)c3)c2cc1OC [Example 318, 2-Chlorobenzyl N-{2-chloro-4-[(6,7-dimethoxy-4-quinazolinyl)oxy]phenyl}carbamate] | 418 | 10 |  | 
